Experiments:
[1] = biological target: T1, HDAC10 (Homo sapiens, UniProt Q969S8); assay: HDAC10 inhibition, human recombinant HDAC isoform survey; type: biochemical; conditions: from % inhibition at 20 μM
T1 sequence (Q969S8 1-669): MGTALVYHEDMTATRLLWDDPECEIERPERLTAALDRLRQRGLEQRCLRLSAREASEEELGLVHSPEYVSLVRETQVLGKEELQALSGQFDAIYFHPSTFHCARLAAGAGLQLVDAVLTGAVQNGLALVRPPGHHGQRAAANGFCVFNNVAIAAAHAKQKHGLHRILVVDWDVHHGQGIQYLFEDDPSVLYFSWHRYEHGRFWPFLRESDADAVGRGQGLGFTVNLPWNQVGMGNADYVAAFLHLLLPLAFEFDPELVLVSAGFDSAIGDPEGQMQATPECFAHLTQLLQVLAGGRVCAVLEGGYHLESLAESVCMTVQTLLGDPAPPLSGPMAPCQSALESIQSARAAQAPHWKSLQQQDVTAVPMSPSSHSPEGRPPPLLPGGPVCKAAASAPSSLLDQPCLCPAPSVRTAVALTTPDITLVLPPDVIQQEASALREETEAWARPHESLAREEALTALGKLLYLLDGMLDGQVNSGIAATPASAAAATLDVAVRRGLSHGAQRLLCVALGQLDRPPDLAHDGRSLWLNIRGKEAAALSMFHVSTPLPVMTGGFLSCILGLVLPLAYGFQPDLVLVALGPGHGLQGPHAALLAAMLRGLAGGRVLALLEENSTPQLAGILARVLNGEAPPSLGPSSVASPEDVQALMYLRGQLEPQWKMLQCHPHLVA

[2] = system: MV-4-11 leukemia cells; assay: Growth inhibition of cultured MV-4-11 leukemia cells; type: cell-based; conditions: for growth inhibitor activity in the MV-4-11 cell line: 24 hours exposure, 1 to 100 μM
[3] = Zinc binding affinity by isothermal calorimetry; conditions: ITC, 25 °C
[4] = system: p21^WAF1/CIP1; assay: p21WAF1/CIP1 levels in MV-4-11 leukemia cells by Western blotting; type: cell-based; conditions: MV-4-11 cells
[5] = biological target: T2, HDAC8 (Homo sapiens, UniProt Q9BY41); assay: HDAC8 inhibition, human recombinant HDAC isoform survey; type: biochemical
T2 sequence (Q9BY41 1-377): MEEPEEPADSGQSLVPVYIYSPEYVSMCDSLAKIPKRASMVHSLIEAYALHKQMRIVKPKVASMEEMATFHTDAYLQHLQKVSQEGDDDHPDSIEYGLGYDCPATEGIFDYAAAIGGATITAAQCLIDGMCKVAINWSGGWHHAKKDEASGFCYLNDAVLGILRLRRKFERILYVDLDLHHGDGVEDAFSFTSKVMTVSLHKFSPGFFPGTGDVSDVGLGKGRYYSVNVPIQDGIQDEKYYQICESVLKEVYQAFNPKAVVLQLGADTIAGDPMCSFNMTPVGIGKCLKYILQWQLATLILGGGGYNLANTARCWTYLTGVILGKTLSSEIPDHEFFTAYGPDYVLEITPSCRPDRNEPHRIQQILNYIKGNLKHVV

[6] = biological target: HDAC1 (Homo sapiens, UniProt Q13547); assay: HDAC1 inhibition, human recombinant HDAC isoform survey; type: biochemical
HDAC1, sequence (Q13547 whole entry, canonical isoform): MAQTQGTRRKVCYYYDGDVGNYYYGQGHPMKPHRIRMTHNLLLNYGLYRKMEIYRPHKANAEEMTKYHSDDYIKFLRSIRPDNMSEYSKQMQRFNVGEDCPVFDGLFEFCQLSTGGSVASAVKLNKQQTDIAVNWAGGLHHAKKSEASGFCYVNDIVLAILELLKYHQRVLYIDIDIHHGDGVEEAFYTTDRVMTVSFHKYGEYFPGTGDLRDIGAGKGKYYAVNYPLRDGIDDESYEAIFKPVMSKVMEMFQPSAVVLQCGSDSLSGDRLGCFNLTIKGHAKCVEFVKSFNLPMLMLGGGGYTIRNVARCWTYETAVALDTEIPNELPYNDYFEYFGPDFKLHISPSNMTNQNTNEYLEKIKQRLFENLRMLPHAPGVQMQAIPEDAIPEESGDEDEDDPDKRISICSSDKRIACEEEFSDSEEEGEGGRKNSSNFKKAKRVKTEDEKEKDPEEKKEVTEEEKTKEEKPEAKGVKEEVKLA

[7] = system: acetylated H3K9; conditions: MV-4-11 cells
[8] = Solubility observations; type: physicochemical; conditions: greater concentration required more than 1% DMSO

## O=C(CNC(=O)c1coc(-c2ccccc2O)n1)Nc1ccccc1 [Compound 24]
[1]
  isoform selectivity: moderately selective for HDAC10

## O=C(NCc1ccc(-c2ccccc2)cc1)c1coc(-c2ccccc2O)n1 [Compound 14]
[2]
  growth inhibitor activity in the MV-4-11 cell line: inactive

## O=C(Nc1ccccc1)c1ccc(CNC(=O)c2coc(-c3ccccc3O)n2)cc1 [Compound 23]
[1]
  isoform selectivity: moderately selective for HDAC10

## O=C(Nc1ccc(-c2ccccc2)cc1)c1coc(-c2ccccc2O)n1 [Compound 13]
[2]
  growth inhibitor activity in the MV-4-11 cell line: inactive

## O=C(NC(c1ccccc1)c1ccccc1)c1coc(-c2ccccc2O)n1 [Compound 10]
[3]
  ΔG, binding to Zn^++: -21.35 kJ/mol
[3]; compound in methanol, zinc in 50mM HEPES pH 7.0
  KA, binding to Zn^++: 4,937 M^-1
[4]
  amount of p21Waf1/CIP1 induced relative to 0.5 μM of SAHA: comparable amount
[4]; concentrations between 1.0 and 10.0 μM
  p21^WAF1/CIP1 expression: dose-dependent increase
[5]
  inhibitory activity against HDAC8: very poor inhibitory activity
[6]
  IC50: < 20 µM
[7]
  amount of acetylated H3K9 induced relative to 0.5 μM of SAHA: comparable amount
[7]; Western blot
  concentration producing an increase in H3K9 acetylation equivalent to 0.5 μM SAHA: 2.5 µM
  concentration with measurable increase in cellular levels of acetylated H3K9: ≥ 2.5 µM
[7]; concentrations between 1.0 and 10 μM
  change in H3K9 acetylation: dose-dependent change in acetylation
[2]; SAHA 0.7 μM vs 10 7.5 μM
  difference in cellular IC50 value against MV4-11 cells between SAHA and compound 10: 10.7 fold
[8]
  solution concentration attainable without more than 1% DMSO: ≤ 20 µM

## O=C(NCCCCNC(=S)NCCC(c1ccccc1)c1ccccc1)c1coc(-c2ccccc2O)n1 [Compound 19]
[1]
  isoform selectivity: moderately selective for HDAC10

## O=C(NCCC(c1ccccc1)c1ccccc1)c1coc(-c2ccccc2O)n1 [Compound 12]
[2]
  growth inhibitor activity in the MV-4-11 cell line: inactive
